Results: US20260285853A1, “COMPOUNDS AND METHODS FOR MODULATING SPLICING” (REMIX THERAPEUTICS INC., priority 2023, published 2026)

Key:
Assay type in all cases: cell-based
[1] = tested on: HTT mRNA; assay: Splicing RT-qPCR assay (THP), Table 2A; conditions: Table 2A, THP; for AC50: HTT alternative junction (AJ) mRNA, read-out: HTT AJ (AC50, increase in alternative junction mRNA); for IC50: HTT canonical junction (CJ) mRNA, read-out: HTT CJ (IC50, decrease in canonical junction mRNA)
[2] = tested on: SH-SY5Y (human neuroblastoma) cells; assay: Cell viability, Cell Titer Glo 2.0 assay; conditions: read-out: Viability SHSY5Y.3 GI50
Method in brief: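 Following a 72 h incubation (37 °C, 5% CO2, 0.1% DMSO final), compound toxicity toward SH-SY5Y cells was quantified by CellTiter-Glo 2.0.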

[3] = tested on: HTT mRNA; assay: Gene panel canonical junction qPCR assay, decrease in CJ mRNA, Table 3; conditions: decrease in CJ mRNA levels, canonical junction qPCR, gene panel
Method in brief: (§1)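 Eleven-point dose responses from 10 uM final, 24 h, DMSO ≤0.25%, in A673 or K562 cells. Relative quantification by 2^(−ΔΔCt) against housekeeper and vehicle was converted to percent response over fixed ΔCt windows and fitted to yield IC50.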

[4] = tested on: MYB mRNA; assay: as above; conditions: decrease in CJ mRNA levels, canonical junction qPCR, gene panel
Method in brief: as §1

[5] = tested on: MYB mRNA; assay: Splicing RT-qPCR assay (THP), Table 2A; conditions: Table 2A, THP; for AC50: MYB alternative junction (AJ) mRNA, read-out: MYB AJ (AC50, increase in alternative junction mRNA); for IC50: MYB canonical junction (CJ) mRNA, read-out: MYB CJ (IC50, decrease in canonical junction mRNA)

| IC50 [1] | GI50 [2] | IC50 [3] | IC50 [4] | IC50 [5] | SMILES | AC50 [1] | AC50 [5] |
| --- | --- | --- | --- | --- | --- | --- | --- |
| 100 to 1000 nM | 100 to 1000 nM | 100 to 1000 nM | < 100 nM | < 100 nM | COc1nc2c(C(=O)Nc3cc(F)c4nn(C)cc4c3)ccc(N3CCN[C@H](C)C3)c2s1 [Compound 765] | 100 to 1000 nM | < 100 nM |
| < 100 nM | < 100 nM | < 100 nM | < 100 nM | < 100 nM | COc1nc2c(C(=O)Nc3cc(F)c4nn(C)cc4c3)ccc(N3CCN[C@@H](C)C3)c2s1 [Compound 766] | < 100 nM | < 100 nM |
| 100 to 1000 nM | 100 to 1000 nM | 100 to 1000 nM | < 100 nM | < 100 nM | COc1nc2c(C(=O)Nc3cc(F)c4nn(C)cc4c3)ccc(N3CC[C@@H](NC(C)(C)C)C3)c2s1 [Compound 769] | 100 to 1000 nM | < 100 nM |
| 100 to 1000 nM | 100 to 1000 nM | 100 to 1000 nM | 100 to 1000 nM | 100 to 1000 nM | COc1nc2c(C(=O)Nc3cc(F)c4nn(C)cc4c3)ccc(N3CC[C@H](NC(C)(C)C)C3)c2s1 [Compound 770] | 100 to 1000 nM | 100 to 1000 nM |
| 1000 to 10000 nM | 1000 to 10000 nM | 1000 to 10000 nM | 1000 to 10000 nM | 1000 to 10000 nM | Cc1cn2cc(NC(=O)c3ccc(N4CCC(NC5CC5)CC4)c4cn(C)nc34)nc2c(Cn2cccn2)n1 [Compound 773, 4-[4-(cyclopropylamino)-1-piperidyl]-2-methyl-N-[6-methyl-8-(pyrazol-1-ylmethyl)imidazo[1,2-a]pyrazin-2-yl]indazole-7-carboxamide] | 1000 to 10000 nM | 1000 to 10000 nM |
| > 10000 nM | > 10000 nM | > 10000 nM | > 10000 nM | > 10000 nM | Cc1cn2cc(NC(=O)c3ccc(N4CCC(NC5CC5)CC4)c4cn(C)nc34)nc2c(CN2CCCS2(=O)=O)n1 [Compound 774, 4-[4-(cyclopropylamino)-1-piperidyl]-N-[8-[(1,1-dioxo-1,2-thiazolidin-2-yl)methyl]-6-methyl-imidazo[1,2-a]pyrazin-2-yl]-2-methyl-indazole-7-carboxamide] | > 10000 nM | > 10000 nM |
| > 10000 nM | > 10000 nM | > 10000 nM | > 10000 nM | > 10000 nM | Cc1cn2cc(NC(=O)c3ccc(N4CCC(NC5CC5)CC4)c4cn(C)nc34)nc2c(Cn2cnc(C(N)=O)c2)n1 [Compound 775, N-(8-((4-carbamoyl-1H-imidazol-1-yl)methyl)-6-methylimidazo[1,2-a]pyrazin-2-yl)-4-(4-(cyclopropylamino)piperidin-1-yl)-2-methyl-2H-indazole-7-carboxamide 2,2,2-trifluoroacetate] | > 10000 nM | > 10000 nM |
| > 10000 nM | 1000 to 10000 nM | > 10000 nM | > 10000 nM | > 10000 nM | Cc1cn2cc(NC(=O)c3ccc(N4CCC(NC5CC5)CC4)c4cn(C)nc34)nc2c(CCN(C)C)n1 [Compound 776] | > 10000 nM | > 10000 nM |
| 1000 to 10000 nM | 1000 to 10000 nM | 1000 to 10000 nM | 1000 to 10000 nM | 1000 to 10000 nM | Cc1cn2cc(NC(=O)c3ccc(N4CCC(N(C)C5CC5)CC4)c4cn(C)nc34)nc2c(CNS(C)(=O)=O)n1 [Compound 777] | 1000 to 10000 nM | 1000 to 10000 nM |
| > 10000 nM | > 10000 nM | > 10000 nM | > 10000 nM | > 10000 nM | Cc1cn2cc(NC(=O)c3ccc(N4CCC(NC5CC5)CC4)c4cn(C)nc34)nc2c(CCNS(C)(=O)=O)n1 [Compound 778] | > 10000 nM | > 10000 nM |

Further lines, the compound ahead of its results:

| SMILES | IC50 [1] | GI50 [2] | IC50 [3] | IC50 [4] | IC50 [5] | AC50 [1] | AC50 [5] |
| --- | --- | --- | --- | --- | --- | --- | --- |
| COc1nc2c(C(=O)Nc3cc4cn(C)nc4c(F)c3O)ccc(N3C[C@H](C)N[C@@H](C)C3)c2s1 [Compound 761, 7-[(3S,5S)-3,5-dimethylpiperazin-1-yl]-N-(7-fluoro-6-hydroxy-2-methyl-indazol-5-yl)-2-methoxy-1,3-benzothiazole-4-carboxamide] | > 10000 nM | 1000 to 10000 nM | > 10000 nM | 100 to 1000 nM | 100 to 1000 nM | > 10000 nM | 100 to 1000 nM |
| COc1nc2c(C(=O)Nc3cc(CNC(C)=O)c4nn(C)cc4c3)ccc(N3C[C@H](C)N[C@@H](C)C3)c2s1 [Compound 762, N-[7-(acetamidomethyl)-2-methyl-indazol-5-yl]-7-[(3S,5S)-3,5-dimethylpiperazin-1-yl]-2-methoxy-1,3-benzothiazole-4-carboxamide] | > 10000 nM | 1000 to 10000 nM | > 10000 nM | < 100 nM | < 100 nM | > 10000 nM | < 100 nM |
| COc1nc2c(C(=O)Nc3cc(F)c4nc(C)nn4c3)ccc(N3C[C@H](C)N[C@@H](C)C3)c2s1 [Compound 763, 7-[(3S,5S)-3,5-dimethylpiperazin-1-yl]-N-(8-fluoro-2-methyl-[1,2,4]triazolo[1,5-a]pyridin-6-yl)-2-methoxy-1,3-benzothiazole-4-carboxamide] | 1000 to 10000 nM | < 100 nM | 1000 to 10000 nM | < 100 nM | < 100 nM | 100 to 1000 nM | < 100 nM |
| COc1nc2c(C(=O)Nc3cn4cc(C)nc4c(F)c3OC)ccc(N3C[C@H](C)N[C@@H](C)C3)c2s1 [Compound 764, 7-((3S,5S)-3,5-dimethylpiperazin-1-yl)-N-(8-fluoro-7-methoxy-2-methylimidazo[1,2-a]pyridin-6-yl)-2-methoxybenzo[d]thiazole-4-carboxamide 2,2,2-trifluoroacetate] | 1000 to 10000 nM | 100 to 1000 nM | 1000 to 10000 nM | < 100 nM | < 100 nM | > 10000 nM | < 100 nM |
| COc1nc2c(C(=O)Nc3cc(F)c4nn(C)cc4c3)ccc(N3C[C@H](C)N(C)[C@@H](C)C3)c2s1 [Compound 767, N-(7-fluoro-2-methyl-indazol-5-yl)-2-methoxy-7-[(3S,5S)-3,4,5-trimethylpiperazin-1-yl]-1,3-benzothiazole-4-carboxamide] | 1000 to 10000 nM | 100 to 1000 nM | 1000 to 10000 nM | < 100 nM | < 100 nM | 1000 to 10000 nM | < 100 nM |
| COc1nc2c(C(=O)Nc3cc(F)c4nn(C)cc4c3)ccc(N3CCC4(CCCN4)CC3)c2s1 [Compound 768] | < 100 nM | 100 to 1000 nM | < 100 nM | < 100 nM | < 100 nM | < 100 nM | < 100 nM |
| COc1nc2c(C(=O)Nc3cc(F)c4nn(C)cc4c3)ccc(N3CCNC(C)C3C)c2s1 (stereo not drawn) [Compound 771, 7-(2,3-dimethylpiperazin-1-yl)-N-(7-fluoro-2-methyl-indazol-5-yl)-2-methoxy-1,3-benzothiazole-4-carboxamide] | 1000 to 10000 nM | 100 to 1000 nM | 1000 to 10000 nM | 100 to 1000 nM | 100 to 1000 nM | > 10000 nM | 100 to 1000 nM |
| COc1nc2c(C(=O)Nc3cc(F)c4nn(C)cc4c3)ccc(N3CC(C)NCC3C)c2s1 (stereo not drawn) [Compound 772, 7-(2,5-dimethylpiperazin-1-yl)-N-(7-fluoro-2-methyl-indazol-5-yl)-2-methoxy-1,3-benzothiazole-4-carboxamide] | > 10000 nM | 1000 to 10000 nM | > 10000 nM | 1000 to 10000 nM | 1000 to 10000 nM | > 10000 nM | 100 to 1000 nM |
